Experimental data reported in paper PMC6797808, “Fucosylated inhibitors of recently identified bangle lectin from Photorhabdus asymbiotica” (Scientific Reports, 2019).
Converted amounts (≈) assume the structure as drawn.

Columns and labels:
[1] = biological target: T1, PHL (Photorhabdus asymbiotica, UniProt C7BLE4); experiment: Hemagglutination inhibition assay with PHL (papain-treated human RBCs O); format: cell-based; conditions: for MIC (minimal inhibitory concentration, hemagglutination by PHL): RBC O, two independent measurements; for PotencyL-Fuc: MIC L-fucose / MIC ligand; for β L-Fuc (affinity improvement factor): MICbasic unit/(valency × MICligand), basic unit L-Fuc; for β Azide1 (affinity improvement factor): basic unit azide 1
Description: The set of potential ligands 1–10 with different levels of fucosylation was tested, and their inhibition potency on hemagglutination by PHL was assessed (Table 1, Fig. 2). […] To assess the contribution of valency to the affinity increase, an affinity improvement factor β was calculated as the relationship MICbasic unit/(valency × MICligand).
Human red blood cells (RBCs) O were processed according to previously published work[16]. In brief, RBCs O treated with sodium citrate were washed four times by PBS buffer (137 mM NaCl, 2.7 mM KCl, 8 mM Na2HPO4, 1.47 mM KH2PO4, pH 7.4), diluted to 50% by PBS with 0.005% (w/w) sodium azide and treated by 0.1% papain for the duration of 30 minutes.
Hemagglutination inhibition assay was performed for specificity and semi-quantitative affinity of the PHL interaction with the compounds. All carbohydrate inhibitors in 50 mM starting concentration were serially diluted in the PBS buffer and used for a determination of the lowest inhibiting concentration. As a blank, the PBS buffer supplemented with the appropriate amount of DMSO was used in order to exclude potential interference with the interaction. The individual samples were mixed with the lectin in concentration 2 mg/ml in a 5 μl:5 μl ratio. Thereafter, 10 μl of 10% RBCs O in PBS buffer was added, thoroughly mixed and incubated for 10 minutes at room temperature. Following incubation, the mixture was again mixed and the reaction was observed on microscope slides using Levenhuk 2L NG microscope with Levenhuk D2L digital camera (Levenhuk, USA). Imagines were obtained via software ToupView for Windows (Levenhuk). The positive (PHL without inhibitor) and negative control (reaction without PHL) were prepared and processed in the same way using the appropriate volume of PBS buffer instead of the not included components. The lowest concentration of inhibitor able to inhibit agglutination was determined and compared with the standard (L-fucose). Minimal inhibitory concentrations (MIC) of synthesised inhibitors were determined from two independent measurements.

[2] = biological target: T1, PHL; experiment: Isothermal titration calorimetry of PHL with ligands; format: binding; conditions: for Kd / −TΔS / −ΔG / −ΔH / n (stoichiometry): ITC at 25 °C; for n (stoichiometry): two independent measurements; for Potency L-Fuc: KD L-fucose / KD ligand; for β L-Fuc (affinity improvement factor): KD,basic unit/(valency × KD,ligand), basic unit L-Fuc; for β Azide1 (affinity improvement factor): basic unit azide 1
Text: The binding of PHL to different α-L-fucoside compounds was further characterized by isothermal titration calorimetry (ITC), enabling determination of the complete thermodynamic profile of the molecular interactions (Table 3, Fig. 4). […] Because of this, it was not possible to evaluate the data, despite the obvious interaction. The dendrimers also cross-linked/aggregated the protein as with calixarenes, however the curves provided clear outcomes with an affinity in the low micromolar range. The dissociation constants (KD) of all dendrimers correlate with their valency – the higher number of fucose, the more decreased KD. […] The stoichiometry value n corresponds to the number of terminal fucoses per ligand molecule. The n value decreases from 4 to 1 as the number of fucose units increases from 1 to 12 (Table 3).
PHL protein in buffer A was equilibrated at room temperature at least for 30 min before ITC measurement. All ITC experiments were performed using ITC200 calorimeter (Malvern Panalytical, UK) at 25 °C. Carbohydrate ligands dissolved in buffer A were used at different concentrations. Protein in the calorimeter cell (50 μM) was titrated by consecutive additions (2 μl) of the ligand (1.5–5 mM) in the syringe while stirring at 1000 rpm. Integrated heat effects were analysed by nonlinear regression using a single-site binding model and global fitting in Origin 7 software (Microcal Instruments)[37]. The thermodynamic parameters of synthesised inhibitors were determined from two independent measurements.

[3] = test system: P. asymbiotica subsp. australis cells; experiment: Cell aggregation (cross-linking) assay; format: cell-based, Photorhabdus asymbiotica subsp. australis; conditions: three independent measurements
Text: Because of the aggregation of PHL by calixarenes and dendrimers during SPR and ITC experiments, we decided to compare tetravalent compounds at a higher level. We performed a series of in vitro aggregation assays to reveal their aggregation properties towards P. asymbiotica subsp. australis (Table 4, Fig. 5). Prior to each assay, we confirmed the absence of aggregates in two negative controls – bacterial cells in PBS buffer and in the presence of azide 1 as a monomer. With all chosen compounds, we observed bacterial aggregates of a variable size that confirmed that they are capable of interacting with a cell surface. This effect may be caused by interaction of the multivalent inhibitors with PHL or other receptors. The concentration of the first appearance of aggregates varied according to the nature of the ligand used. […] An unexpected observation was that calixarene 7 had the lowest aggregation potential. In contrast to other techniques (hemagglutination, SPR and ITC), where calixarenes 6 and 7 provided similar results, during cross-linking experiments calixarene 7 was four times worse than calixarene 6. At the same time, both tetrameric calixarenes 6 and 7 are in a 1,3-alternate conformation with the two-faced presentation of the fucopyranosyl epitopes on opposite regions probably occupying a similar spatial orientation. The only difference is the tert-Bu group on the upper rim in calixarene 6, which might contribute to nonpolar interactions with whole P. asymbiotica cells.
P. asymbiotica subsp. australis was inoculated from stock cells stored at −80 °C into a standard LB media and were grown in 30 °C under an orbital shaking overnight. Bacterial growth was tracked by measuring the optical density of the broth at 600 nm (OD600) using a spectrophotometer (Biochrom Ltd., BioPhotometer WGA CO 8000 Biowave). Cells were harvested when reaching an OD600 = 0.5. The culture was centrifuged at 4,300 g and room temperature for 2 minutes (Minispin, Eppendorf, Germany) and cells were then washed three times with PBS buffer. Cells were diluted in PBS to OD600 of 2.0 and kept in a fridge until performing the aggregation assay.
P. asymbiotica subsp. australis cells and fucosylated compounds in a concentration ranging from 50 mM to 3.125 mM were gently mixed in a 9:1 (v/v) ratio. The reaction mixtures were left at room temperature for 10 minutes. 5 µl of reaction mixture was then transferred onto a microscope slide and observed under a fluorescence microscope (OLYMPUS IX81 Microscope IX81F-3 with IX2-UCB-2 Controller and X-Cite 120PC Q; Olympus and Excelitas Technologies, Japan, resp. USA). As a negative control, bacterial cells with/without azide 1 as a monomer were used. Three independent measurements were performed.

T1 sequence (C7BLE4 entry or part of it): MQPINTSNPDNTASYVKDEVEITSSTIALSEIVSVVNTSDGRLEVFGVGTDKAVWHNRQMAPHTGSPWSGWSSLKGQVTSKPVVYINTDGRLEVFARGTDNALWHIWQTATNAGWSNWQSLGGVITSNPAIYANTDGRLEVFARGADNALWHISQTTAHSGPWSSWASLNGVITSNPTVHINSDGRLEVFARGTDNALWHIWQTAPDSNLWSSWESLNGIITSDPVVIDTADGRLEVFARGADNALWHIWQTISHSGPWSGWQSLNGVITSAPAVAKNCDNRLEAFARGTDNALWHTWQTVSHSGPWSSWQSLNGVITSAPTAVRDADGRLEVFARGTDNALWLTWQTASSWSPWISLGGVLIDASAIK

| SMILES | MIC (minimal inhibitory concentration, hemagglutination by PHL) [1] [µM] | PotencyL-Fuc ([1]; hemagglutination) | PotencyL-Fuc ([1]; hemagglutination, listed as azide 1) | β L-Fuc (affinity improvement factor) ([1]; hemagglutination) | β Azide1 (affinity improvement factor) ([1]; hemagglutination) | Kd [2] [µM] | −TΔS [2] [kJ/mol] | −ΔG [2] [kJ/mol] | −ΔH [2] [kJ/mol] | n (stoichiometry) [2] | Potency L-Fuc ([2]; ITC) | β L-Fuc (affinity improvement factor) ([2]; ITC) | β Azide1 (affinity improvement factor) ([2]; ITC) | The lowest concentration able to aggregate P. asymbiotica cells [3] | PotencyAzide1 ([1]; hemagglutination, relative to azide 1) | PotencyAzide1 ([2]; ITC, relative to azide 1) |
| --- | --- | --- | --- | --- | --- | --- | --- | --- | --- | --- | --- | --- | --- | --- | --- | --- |
| C[C@@H]1O[C@@H](CCN=[N+]=[N-])[C@@H](O)[C@H](O)[C@@H]1O [Azide 1] | 200 (≈ 43.4 µg/mL) | 15.6 | 16 | 15.6 | 1 | 105 ± 9 | 20.2 ± 4.4 | 22.7 ± 2.0 | 42.9 ± 3.9 | 4.1 ± 0.3 | 13 | 13 | 1 | No visible aggregation in used concentrations | – | – |
| C[C@@H]1O[C@@H](CCn2cc(COCC(COCc3cn(CC[C@@H]4O[C@@H](C)[C@@H](O)[C@@H](O)[C@@H]4O)nn3)(COCc3cn(CC[C@@H]4O[C@@H](C)[C@@H](O)[C@@H](O)[C@@H]4O)nn3)COCc3cn(CC[C@@H]4O[C@@H](C)[C@@H](O)[C@@H](O)[C@@H]4O)nn3)nn2)[C@@H](O)[C@H](O)[C@@H]1O [Dendrimer 8] | 50 (≈ 57.9 µg/mL) | 62.5 | – | 15.6 | 1 | 36.9 ± 3.7 | 28.6 ± 3.2 | 25.3 ± 2.5 | 53.8 ± 1.9 | 3.0 ± 0.1 | 38 | 9 | 1 | 0.625 mM | 4 | 3 |
